Where a SMILES comes first, the peptide text is derived from it. Bridges are numbered along the chain shown (N, C = ends). [ ]: non-standard residue; d: D form. The star is where a group is joined. ξ: configuration not given here. Ala(morpholin-4-yl) = N[C@@H](CN1CCOCC1)C(=O)O; Phe(4-COOH) = N[C@@H](Cc1ccc(C(=O)O)cc1)C(=O)O; Phe(3,5-F2) = N[C@@H](Cc1cc(F)cc(F)c1)C(=O)O; Bip = N[C@@H](Cc1ccc(-c2ccccc2)cc1)C(=O)O; Phe(3-Me) = Cc1cccc(C[C@H](N)C(=O)O)c1; Val(3-OH) = CC(C)(O)[C@H](N)C(=O)O; 3Pal = N[C@@H](Cc1cccnc1)C(=O)O; 4Pal = N[C@@H](Cc1ccncc1)C(=O)O; Cha = N[C@@H](CC1CCCCC1)C(=O)O; Cit = NC(=O)NCCC[C@H](N)C(=O)O; Ile(3ξ) = CCC(C)[C@H](N)C(=O)O; Thr(3ξ) = CC(O)[C@H](N)C(=O)O; Carboxymethyl = O=C(O)C*; Orn = NCCC[C@H](N)C(=O)O; Pra = C#CC[C@H](N)C(=O)O; Dab = NCC[C@H](N)C(=O)O; Dap = NC[C@H](N)C(=O)O; X9 = c1cn(CCCN*)cn1; Propargyl = C#CC*
The molecules below were run against T1, human PD-1 / PD-L1-Ig binding on Jurkat cell line over-expressing human PD-1 (Jurkat-PD-1) (Homo sapiens, UniProt Q15116) (assay: Jurkat-PD-1 Cell Binding High-Content Screening Assay (CBA)). Settings: Jurkat-PD-1 cells, PE-labeled PD-L1-Ig 20 nM final; read-out: Jurkat HPD1_PDL1 IC50.
T1 construct: expressed in transfected cells; host or cells: Jurkat
Assay type: cell-based
In short: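 Binding of fluorescent PD-L1-Ig (phycoerythrin linked via the Ig tag, 20 nM final) to PD-1-overexpressing Jurkat cells was imaged after a 2 h, 37° C compound pretreatment and 1 hour ligand incubation.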

T1 sequence (Q15116 25-288): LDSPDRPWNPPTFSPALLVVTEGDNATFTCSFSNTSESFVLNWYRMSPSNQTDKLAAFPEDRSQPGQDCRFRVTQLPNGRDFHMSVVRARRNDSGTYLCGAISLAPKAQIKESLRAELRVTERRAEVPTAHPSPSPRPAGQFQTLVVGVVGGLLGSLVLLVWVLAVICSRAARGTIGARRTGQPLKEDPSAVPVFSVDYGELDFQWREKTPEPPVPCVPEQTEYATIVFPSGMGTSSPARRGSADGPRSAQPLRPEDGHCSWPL

| IC50 | Compound |
| --- | --- |
| 10.6 nM | CC(C)C[C@H]1NC(=O)[C@H](CCCN)NC(=O)[C@H](CCCNC(N)=O)NC(=O)[C@H](Cc2ccc(-c3ccccc3)cc2)NC(=O)[C@H](C(C)C)NC(=O)[C@H](Cc2c[nH]c3ccccc23)NC(=O)[C@H](CC(=O)O)NC(=O)[C@H](Cc2ccc(OCC(=O)O)cc2)NC(=O)[C@H](CN)NC(=O)CSC[C@@H](C(=O)N[C@@H](C)C(N)=O)NC(=O)[C@H]([C@@H](C)O)NC(=O)[C@H]([C@@H](C)O)NC(=O)[C@H](CC2CCCCC2)NC(=O)[C@H](CCN)NC1=O [Compound 1318] ({CH2CO}-[Dap]Y(Carboxymethyl)DWV[Bip][Cit][Orn][dL][Dab][Cha]TTCA-NH2; thioether N-14) |
| 24.1 nM | CC(C)C[C@H]1NC(=O)[C@H](CCCN)NC(=O)[C@H](CCC(=O)O)NC(=O)[C@H](Cc2ccc(-c3ccccc3)cc2)NC(=O)[C@H](C(C)C)NC(=O)[C@H](Cc2c[nH]c3ccccc23)NC(=O)[C@H](CC(=O)O)NC(=O)[C@H](Cc2ccc(C#N)cc2)NC(=O)[C@H](Cc2ccc(OCC(=O)O)cc2)NC(=O)CSC[C@@H](C(=O)N[C@@H](C)C(N)=O)NC(=O)[C@H]([C@@H](C)O)NC(=O)[C@H](C(C)C)NC(=O)[C@H](CC2CCCCC2)NC(=O)[C@H](CCN)NC1=O [Compound 2188] |
| 10.8 nM | CC(C)C[C@@H]1NC(=O)[C@H](CCN)NC(=O)[C@@H](CC(C)C)NC(=O)[C@@H](C)NC(=O)[C@H](C(C)C)NC(=O)[C@H](Cc2ccc(-c3ccccc3)cc2)NC(=O)[C@H](C(C)C)NC(=O)[C@H](Cc2c[nH]c3ccccc23)NC(=O)[C@H](CC(=O)O)NC(=O)[C@H](Cc2ccc(O)cc2)NC(=O)[C@H](CC(N)=O)NC(=O)CSC[C@@H](C(=O)N[C@@H](C)C(N)=O)NC(=O)[C@H]([C@@H](C)O)NC(=O)[C@H](C(C)C)NC1=O [Compound 1026] ({CH2CO}-NYDWV[Bip]V[dA][dL][Dab]LVTCA-NH2; thioether N-14) |
| 5.1 nM | Cc1cccc(C[C@@H]2NC(=O)[C@H](CC(=O)O)NC(=O)[C@H](Cc3ccc(C(=O)O)cc3)NC(=O)[C@H](CN)NC(=O)CSC[C@@H](C(=O)N[C@@H](C)C(=O)NCCCn3ccnc3)NC(=O)[C@H]([C@@H](C)O)NC(=O)[C@H](C(C)C)NC(=O)[C@H](CC(C)C)NC(=O)[C@H](CCN)NC(=O)[C@@H](CC(C)C)NC(=O)[C@H](CCCN)NC(=O)[C@H](C(C)C)NC(=O)[C@H](Cc3ccc(-c4ccccc4)cc3)NC(=O)[C@H](C(C)C)NC2=O)c1 [Compound 2005] ({CH2CO}-[Dap][Phe(4-COOH)]D[Phe(3-Me)]V[Bip]V[Orn][dL][Dab]LVTCA-X9; thioether N-14) |
| 23.4 nM | CC(C)C[C@H]1NC(=O)[C@H](CCCN)NC(=O)[C@H](CCC(=O)O)NC(=O)[C@H](Cc2ccc(-c3ccccc3)cc2)NC(=O)[C@H](C(C)C)NC(=O)[C@H](Cc2c[nH]c3ccccc23)NC(=O)[C@H](CC(=O)O)NC(=O)[C@H](Cc2cccs2)NC(=O)[C@H](Cc2ccc(OCC(=O)O)cc2)NC(=O)CSC[C@@H](C(=O)N[C@@H](C)C(N)=O)NC(=O)[C@H]([C@@H](C)O)NC(=O)[C@H](C(C)C)NC(=O)[C@H](CC2CCCCC2)NC(=O)[C@H](CCN)NC1=O [Compound 2193] |
| 33 nM | CC(C)C[C@H]1NC(=O)[C@H](CCCN)NC(=O)[C@H](CCC(=O)O)NC(=O)[C@H](Cc2ccc(-c3ccccc3)cc2)NC(=O)[C@H](C(C)C)NC(=O)[C@H](Cc2c[nH]c3ccccc23)NC(=O)[C@H](CC(=O)O)NC(=O)[C@H](Cc2ccc(OCC(=O)O)cc2)NC(=O)[C@H](CN)NC(=O)CSC[C@@H](C(=O)N[C@@H](C)C(N)=O)NC(=O)[C@H]([C@@H](C)O)NC(=O)[C@H](C(C)C)NC(=O)[C@H](Cc2cc(F)cc(F)c2)NC(=O)[C@H](CCN)NC1=O [Compound 1476] ({CH2CO}-[Dap]Y(Carboxymethyl)DWV[Bip]E[Orn][dL][Dab][Phe(3,5-F2)]VTCA-NH2; thioether N-14) |
| 9.9 nM | CC(C)C[C@@H]1NC(=O)[C@H](CCN)NC(=O)[C@@H](CC(C)C)NC(=O)[C@H](CCCN)NC(=O)[C@H](C(C)C)NC(=O)[C@H](Cc2ccc(-c3ccccc3)cc2)NC(=O)[C@H](C(C)C)NC(=O)[C@H](Cc2c[nH]c3ccccc23)NC(=O)[C@H](CC(=O)O)NC(=O)[C@H](Cc2ccc(O)cc2)NC(=O)[C@H](Cc2cccnc2)NC(=O)CSC[C@@H](C(=O)N[C@@H](C)C(N)=O)NC(=O)[C@H]([C@@H](C)O)NC(=O)[C@H](C(C)C)NC1=O [Compound 1050] ({CH2CO}-[3Pal]YDWV[Bip]V[Orn][dL][Dab]LVTCA-NH2; thioether N-14) |
| 19.6 nM | CC[C@H](C)[C@@H]1NC(=O)[C@H](Cc2ccc(-c3ccccc3)cc2)NC(=O)[C@H](C(C)C)NC(=O)[C@H](Cc2c[nH]c3ccccc23)NC(=O)[C@H](CC(=O)O)NC(=O)[C@H](Cc2ccc(O)cc2)NC(=O)[C@H](Cc2ccc(OCC(=O)O)cc2)NC(=O)CSC[C@@H](C(=O)N[C@@H](C)C(N)=O)NC(=O)[C@H]([C@@H](C)O)NC(=O)[C@H](C(C)C)NC(=O)[C@H](CC(C)C)NC(=O)[C@H](CCCNC(=N)N)NC(=O)[C@@H](CC(C)C)NC(=O)[C@H](CCCN)NC1=O [Compound 1142] ({CH2CO}-Y(Carboxymethyl)YDWV[Bip]I[Orn][dL]RLVTCA-NH2; thioether N-14) |
| 23 nM | C#CCOc1ccc(C[C@@H]2NC(=O)[C@H](C(C)C)NC(=O)[C@H](CC3CCCCC3)NC(=O)[C@H](CCN)NC(=O)[C@@H](CC(C)C)NC(=O)[C@H](CCCN)NC(=O)[C@H](Cc3ccc(OCC(=O)O)cc3)NC(=O)[C@H](Cc3ccc(-c4ccccc4)cc3)NC(=O)[C@H](Cc3ccc(OCC(=O)O)cc3)NC(=O)[C@H](Cc3cccc(C)c3)NC(=O)[C@H](CC(=O)O)NC(=O)[C@H](Cc3ccc(OCC(=O)O)cc3)NC(=O)[C@H](CCN)NC(=O)CSC[C@@H](C(=O)N[C@@H](CCN)C(N)=O)NC2=O)cc1 [Compound 1814] ({CH2CO}-[Dab]Y(Carboxymethyl)D[Phe(3-Me)]Y(Carboxymethyl)[Bip]Y(Carboxymethyl)[Orn][dL][Dab][Cha]VY(Propargyl)C[Dab]-NH2; thioether N-14) |
| 18.9 nM | C#CC[C@H](NC(=O)[C@H](CCN)NC(=O)[C@@H]1CSCC(=O)N[C@@H](CN2CCOCC2)C(=O)N[C@@H](Cc2ccc(OCC(=O)O)cc2)C(=O)N[C@@H](CC(=O)O)C(=O)N[C@@H](Cc2cccc(C)c2)C(=O)N[C@@H](Cc2ccc(OCC(=O)O)cc2)C(=O)N[C@@H](Cc2ccc(-c3ccccc3)cc2)C(=O)N[C@@H](Cc2ccc(OCC(=O)O)cc2)C(=O)N[C@@H](CCCN)C(=O)N[C@H](CC(C)C)C(=O)N[C@@H](CCN)C(=O)N[C@@H](CC2CCCCC2)C(=O)N[C@@H](C(C)(C)O)C(=O)N[C@@H](CO)C(=O)N1)C(N)=O [Compound 1852] ({CH2CO}-[Ala(morpholin-4-yl)]Y(Carboxymethyl)D[Phe(3-Me)]Y(Carboxymethyl)[Bip]Y(Carboxymethyl)[Orn][dL][Dab][Cha][Val(3-OH)]SC[Dab][Pra]-NH2; thioether N-14) |
| 20.6 nM | CC[C@H](C)[C@@H]1NC(=O)[C@H](Cc2ccc(-c3ccccc3)cc2)NC(=O)[C@H](C(C)C)NC(=O)[C@H](Cc2c[nH]c3ccccc23)NC(=O)[C@H](CC(=O)O)NC(=O)[C@H](Cc2ccc(OCC(=O)O)cc2)NC(=O)[C@H](Cc2ccc(OCC(=O)O)cc2)NC(=O)CSC[C@@H](C(=O)N[C@@H](C)C(N)=O)NC(=O)[C@H]([C@@H](C)O)NC(=O)[C@H](C(C)C)NC(=O)[C@H](Cc2ccccc2)NC(=O)[C@H](CCN)NC(=O)[C@@H](CC(C)C)NC(=O)[C@H](CCCN)NC1=O [Compound 1660] ({CH2CO}-Y(Carboxymethyl)Y(Carboxymethyl)DWV[Bip]I[Orn][dL][Dab]FVTCA-NH2; thioether N-14) |
| 10.5 nM | CCC(C)[C@@H]1NC(=O)[C@H](Cc2ccc(-c3ccccc3)cc2)NC(=O)[C@H](C(C)C)NC(=O)[C@H](Cc2c[nH]c3ccccc23)NC(=O)[C@H](CC(=O)O)NC(=O)[C@H](Cc2ccc(OCC(=O)O)cc2)NC(=O)[C@H](CN)NC(=O)CSC[C@@H](C(=O)N[C@@H](C)C(N)=O)NC(=O)[C@H](C(C)O)NC(=O)[C@H](C(C)C)NC(=O)[C@H](CC2CCCCC2)NC(=O)[C@H](CCN)NC(=O)[C@@H](CC(C)C)NC(=O)[C@H](CCCN)NC1=O (stereo partly drawn) [Compound 2520] |
| 36.2 nM | Cc1cccc(C[C@@H]2NC(=O)[C@H](CC(=O)O)NC(=O)[C@H](Cc3ccc(OCC(=O)O)cc3)NC(=O)[C@H](Cc3cccnc3)NC(=O)CSC[C@@H](C(=O)NCC(N)=O)NC(=O)[C@H](CO)NC(=O)[C@H](C(C)C)NC(=O)[C@H](CC3CCCCC3)NC(=O)[C@H](Cc3cnc[nH]3)NC(=O)[C@@H](CC(C)C)NC(=O)[C@H](CCCN)NC(=O)[C@H](C(C)C)NC(=O)[C@H](Cc3ccc(-c4ccccc4)cc3)NC(=O)[C@H](CC(C)C)NC2=O)c1 [Compound 1582] ({CH2CO}-[3Pal]Y(Carboxymethyl)D[Phe(3-Me)]L[Bip]V[Orn][dL]H[Cha]VSCG-NH2; thioether N-14) |
| 26.8 nM | Cc1cccc(C[C@@H]2NC(=O)[C@H](CC(=O)O)NC(=O)[C@H](Cc3ccc(C(=O)O)cc3)NC(=O)[C@H](Cc3ccncc3)NC(=O)CSC[C@@H](C(N)=O)NC(=O)[C@H](CO)NC(=O)[C@H](C(C)C)NC(=O)[C@H](CC3CCCCC3)NC(=O)[C@H](CCN)NC(=O)[C@@H](CC(C)C)NC(=O)[C@H](CCCN)NC(=O)[C@H](CCCNC(N)=O)NC(=O)[C@H](Cc3ccc(-c4ccccc4)cc3)NC(=O)[C@H](C(C)C)NC2=O)c1 [Compound 2268] ({CH2CO}-[4Pal][Phe(4-COOH)]D[Phe(3-Me)]V[Bip][Cit][Orn][dL][Dab][Cha]VSC-NH2; thioether N-14) |

Same assay, conditions: read-out: Jurkat HPD1_PDL1 IC50; Jurkat-PD-1 cells, PE-labeled PD-L1-Ig 20 nM final

| Compound | IC50 |
| --- | --- |
| CCC(C)[C@@H]1NC(=O)[C@H](Cc2ccc(-c3ccccc3)cc2)NC(=O)[C@H](CO)NC(=O)[C@H](Cc2c[nH]c3ccccc23)NC(=O)[C@H](CC(=O)O)NC(=O)[C@H](Cc2ccc(OCC(=O)O)cc2)NC(=O)[C@H](C(C)O)NC(=O)CSC[C@@H](C(=O)N[C@@H](CC(N)=O)C(=O)O)NC(=O)[C@H](CO)NC(=O)[C@H](C(C)C)NC(=O)[C@H](CC(C)C)NC(=O)[C@H](CCN)NC(=O)[C@@H](CC(C)C)NC(=O)[C@H](CCCN)NC1=O (stereo partly drawn) [Compound 2581] ({CH2CO}-[Thr(3ξ)]Y(Carboxymethyl)DWS[Bip][Ile(3ξ)][Orn][dL][Dab]LVSCN-OH; thioether N-14) | 472 nM |
